Reference: patent publication US12534762B2, “Treating atopic dermatitis by targeting the WNT pathway” (Children's Medical Center Corporation, priority 2018, dated 2026)

Tested on: Xenopus embryos
Assay: Dorso-animal morpholino injection, phenotype scored at stage 35
Format: in vivo, Xenopus laevis
Conditions: FIG. 6 Panel D
Procedure: Xenopus embryo manipulations. Procedures for embryo manipulation, reverse transcription PCR and in situ hybridization were performed as previously described (Zhang et al., 2012, Cell, 149:1565-1577). The full length Xenopus laevis Tmem79 cDNA was used to make in situ sense and antisense probes.
mRNA and Morpholino injection. For animal cap assays, indicated mRNAs (Tmem79, 100 and 200 pg; Xwnt8, 10 pg; β-catenin 50 pg; Xnr1, 250 pg; BMP4, 100 pg) were injected into the animal pole at 4-cell stage, and animal caps were dissected at stage 9 (in the case of Xwnt8, Xnr1, BMP4) or at stage 8.5 and treated with recombinant proteins (bFGF, 100 ng/ml; hShh, 1.5 ng/mL) until stage 10 before RT-PCR. For Neural induction assay the MO (20 ng) for Tmem79, Usp8 or β-catenin was injected into the animal pole at 4-cell stage, and animal caps were dissected at stage 9 and treated with recombinant protein Noggin (500 ng/mL) until stage 18 before RT-PCR. To examine Tmem79 and Usp8 MOs specificity, […] of mRNA of Xenopus Tmem79, mouse Tmem79, Xenopus Usp8 or xmutUsp8 (Xenopus Usp8 mutated for mismatches with the MO) were injected with a control MO, Tmem79 MO or Usp8 MO (20 ng) into the animal pole at the 2-cell stage and cultured til stage 10 for Western blotting. To knockdown the endogenous xTmem79 or xUsp8, 20 ng of control MO, Tmem79 MO or Usp8 MO were injected into two dorso-animal blastomeres at the 8-cell stage and the phenotype was scored at stage 35. To rescue the Tmem79 MO phenotype, […] of mTmem 79, 20 ng of Usp8 MO or 10 ng of β-catenin MO was injected together with Tmem79 MO (20 ng). RT-PCR primers and Morpholinos. RT-PCT primer for Xenopus laevis Tmem 79: Forward, 5′-[…]-3′ (SEQ ID NO: 22); Reverse, 5′-[…]-3′ (SEQ ID NO: 23). The MO sequences: Tmem79.S MO, 5′-[…]-3′ (SEQ ID NO: 24); Tmem79.L MO, 5′-[…]-3′ (SEQ ID NO: 25); Usp8 MO, 5′-[…]-3′ ((SEQ ID NO: 26; Gene Tools, LLC). Phylogeny analysis and protein sequences. TMEM79 protein sequences were derived from full-length NCBI accessions and genomic sequences. Human (Homo sapiens): NP_115699.1 (SEQ ID NO: 27), Chimpanzee (Pan troglodytes): XP_001165258.1 (SEQ ID NO: 28), Rat (Rattus norvegicus): NP_001029068.1 (SEQ ID NO: 29), Mouse (Mus musculus): NP_077208.1 (SEQ ID NO: 30), Chicken (Gallus gallus): XP_024999333.1 (SEQ ID NO: 31), Frog (Xenopus laevis): XP_018089022.1 (SEQ ID NO: 32), Zebra fish (Danio rerio): XP_009290676.1 (SEQ ID NO: 33) and Coelacanth (Latimeria chalumnae): XP_014351966.1 (SEQ ID NO: 34). The Protein sequences encoded by mouse MAPEG family (Membrane-Associated Proteins in Eicosanoid and Glutathione metabolism, pfam01124) members protein sequences were derived from full-length NCBI accessions and genomic sequences. […]

Usp8 MO: morpholino against Xenopus Usp8, SEQ ID NO: 26 (antisense GCTGCAAATTCTCCTCTCTTATCAA; all phosphorodiamidate morpholino (PMO); listed as Xenopus laevis)
Enlarged Head: 93.2 % of embryos
Moderate Deficiency (anterior deficiency): 0.0 % of embryos
Severe Deficiency (anterior deficiency): 0.0 % of embryos
Normal (dorso-animal injection): 6.8 % of embryos
